The subject of test [1] is M. bovis BCG substrain Pasteur. In kind it is cell-based, Mycobacterium bovis BCG.
The next test relates to E. coli. To be noted: AEC alone; cited from earlier work.
The test system of another test is C. glutamicum. To be noted: AEC alone versus with threonine; cited from earlier work.
The next test has as its system aspartokinase. To be noted: enzyme of the first step of the aspartate amino acid family pathway; cited from earlier work.
Another test concerns M. tuberculosis H37Rv. Format: cell-based, Mycobacterium tuberculosis.

Entries after “also recorded” stand apart in the source; their conditions may differ.

As to `NCCSC[C@H](N)C(=O)O` [AEC, S-(β-aminoethyl)-L-cysteine], the “inhibitory effect upon growth” value is on record as “neither AEC or Thr alone have an inhibitory effect; also recorded: the combination of the two does inhibit growth, with BCG experiencing the greatest inhibition” in test [1] and “neither AEC or Thr alone have an inhibitory effect; also recorded: the combination of the two does inhibit growth” in the test with M. tuberculosis H37Rv. For the same compound, the values for the inhibition of growth result with E. coli and in the test with C. glutamicum were “capable of inhibiting the growth of E. coli” and “requires the addition of threonine to inhibit the growth of C. glutamicum”, respectively. For the same compound, the inhibition of aspartokinase result with aspartokinase was “inhibits aspartokinase”.

As for `C[C@@H](O)[C@H](N)C(=O)O` [Thr, threonine], the “inhibitory effect upon growth” value (in test [1]; in the test on M. tuberculosis H37Rv) was “neither AEC or Thr alone have an inhibitory effect” each time.

(Values after patent US6423545B1, “Unmarked deletion mutants of mycobacteria and methods of using same” (Albert Einstein College of Medicine of Yeshiva University, priority 1999, dated 2002).)
